Measured values from paper PMC6009956, “Design, synthesis and biological activity of N^4-phenylsubstituted-7H-pyrrolo[2,3-d]pyrimidin-4-amines as dual inhibitors of aurora kinase A and epidermal growth factor receptor kinase” (Journal of Enzyme Inhibition and Medicinal Chemistry, 2017).
Read-outs that look alike come from different tables or passages of the source.

Legend:
aurora A kinase (AURKA) = target: T1, aurora A kinase (AURKA) (Homo sapiens, UniProt O14965); test: ADP-Glo kinase assay, Aurora A; assay type: biochemical
T1 construct: purchased BPS Bioscience (assay run externally by the vendor)
T1 sequence (O14965 1-403): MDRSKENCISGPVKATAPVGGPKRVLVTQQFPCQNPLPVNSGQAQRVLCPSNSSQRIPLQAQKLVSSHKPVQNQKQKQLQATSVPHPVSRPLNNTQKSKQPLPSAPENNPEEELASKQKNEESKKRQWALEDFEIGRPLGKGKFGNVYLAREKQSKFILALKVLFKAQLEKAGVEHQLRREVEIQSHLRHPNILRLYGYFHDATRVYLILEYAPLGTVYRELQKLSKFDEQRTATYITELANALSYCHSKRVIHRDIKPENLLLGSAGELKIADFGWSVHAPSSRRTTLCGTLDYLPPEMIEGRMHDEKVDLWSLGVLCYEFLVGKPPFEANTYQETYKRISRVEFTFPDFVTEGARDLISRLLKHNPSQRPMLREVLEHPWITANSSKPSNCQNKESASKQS

EGFR = EGFR (Homo sapiens, UniProt P00533); test: ADP-Glo kinase assay, EGFR; assay type: biochemical; design: purchased BPS Bioscience (assay run externally by the vendor)
Chain of EGFR (P00533 25-1210): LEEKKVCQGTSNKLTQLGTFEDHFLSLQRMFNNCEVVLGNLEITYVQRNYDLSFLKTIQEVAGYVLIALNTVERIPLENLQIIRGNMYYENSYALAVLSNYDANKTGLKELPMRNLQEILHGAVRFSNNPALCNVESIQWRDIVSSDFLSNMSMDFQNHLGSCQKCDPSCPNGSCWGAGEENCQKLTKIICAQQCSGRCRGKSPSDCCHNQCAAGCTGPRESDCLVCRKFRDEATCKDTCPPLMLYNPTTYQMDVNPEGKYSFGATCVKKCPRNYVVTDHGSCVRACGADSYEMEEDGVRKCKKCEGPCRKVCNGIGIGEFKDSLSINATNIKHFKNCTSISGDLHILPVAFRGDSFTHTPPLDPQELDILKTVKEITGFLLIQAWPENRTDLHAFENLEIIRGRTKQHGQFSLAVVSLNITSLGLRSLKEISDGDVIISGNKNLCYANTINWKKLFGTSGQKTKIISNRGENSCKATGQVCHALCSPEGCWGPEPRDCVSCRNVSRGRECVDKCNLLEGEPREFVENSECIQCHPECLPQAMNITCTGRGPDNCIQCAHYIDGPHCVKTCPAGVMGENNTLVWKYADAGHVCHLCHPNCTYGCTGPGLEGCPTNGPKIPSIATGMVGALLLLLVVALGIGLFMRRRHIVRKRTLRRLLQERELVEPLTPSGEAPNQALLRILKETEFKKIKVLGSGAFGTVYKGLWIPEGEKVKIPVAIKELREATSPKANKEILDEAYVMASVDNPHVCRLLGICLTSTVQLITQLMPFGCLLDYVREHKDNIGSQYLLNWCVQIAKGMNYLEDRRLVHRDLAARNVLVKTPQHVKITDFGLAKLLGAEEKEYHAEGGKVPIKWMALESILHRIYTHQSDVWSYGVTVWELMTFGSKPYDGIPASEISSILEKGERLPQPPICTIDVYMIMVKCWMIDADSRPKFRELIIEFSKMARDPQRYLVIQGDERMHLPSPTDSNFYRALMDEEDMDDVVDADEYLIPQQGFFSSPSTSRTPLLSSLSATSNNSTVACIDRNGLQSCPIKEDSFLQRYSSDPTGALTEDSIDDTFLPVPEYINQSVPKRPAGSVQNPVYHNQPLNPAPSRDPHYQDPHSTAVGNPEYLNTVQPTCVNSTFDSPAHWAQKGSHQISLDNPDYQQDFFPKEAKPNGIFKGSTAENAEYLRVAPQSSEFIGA

[1] = 10 µM ATP, triplicate, read-out: AURKA IC50 ± SD
[2] = 10 µM ATP/0.2 mg/ml Kemptide, read-out: Aurora A IC50 (dose-response curve, supplement)
[3] = 10 µM ATP, triplicate, read-out: EGFR IC50 ± SD
[4] = 10 µM ATP/0.2 mg/ml Poly-Glu-Tyr, read-out: EGFR IC50 (dose-response curve, supplement)

SMILES: Nc1nc(Nc2cccc(Br)c2)c2cc[nH]c2n1 [Compound 8, N^4-(3-bromophenyl)-7H-pyrrolo[2,3-d]pyrimidine-2,4-diamine]
- Fold less potent than compound 2 against AURKA (aurora A kinase (AURKA)): approximately two-fold
- IC50 (aurora A kinase (AURKA); [1]): 4.54 ± 0.93 µM
- IC50 (aurora A kinase (AURKA); [2]): 4.5 µM
- Aurora A % Activity Set1 (aurora A kinase (AURKA); Log[nM] 0): 103%
- Aurora A % Activity Set2 (aurora A kinase (AURKA); Log[nM] 0): 107%
- Aurora A % Activity Set3 (aurora A kinase (AURKA); Log[nM] 0): 99%
- Aurora A % Activity Set1 (aurora A kinase (AURKA); Log[nM] 1.0): 110%
- Aurora A % Activity Set2 (aurora A kinase (AURKA); Log[nM] 1.0): 101%
- Aurora A % Activity Set3 (aurora A kinase (AURKA); Log[nM] 1.0): 111%
- Aurora A % Activity Set1 (aurora A kinase (AURKA); Log[nM] 1.5): 109%
- Aurora A % Activity Set2 (aurora A kinase (AURKA); Log[nM] 1.5): 108%
- Aurora A % Activity Set3 (aurora A kinase (AURKA); Log[nM] 1.5): 105%
- Aurora A % Activity Set1 (aurora A kinase (AURKA); Log[nM] 2.0): 109%
- Aurora A % Activity Set2 (aurora A kinase (AURKA); Log[nM] 2.0): 109%
- Aurora A % Activity Set3 (aurora A kinase (AURKA); Log[nM] 2.0): 109%
- Aurora A % Activity Set1 (aurora A kinase (AURKA); Log[nM] 2.5): 96%
- Aurora A % Activity Set2 (aurora A kinase (AURKA); Log[nM] 2.5): 101%
- Aurora A % Activity Set3 (aurora A kinase (AURKA); Log[nM] 2.5): 113%
- Aurora A % Activity Set1 (aurora A kinase (AURKA); Log[nM] 3.0): 84%
- Aurora A % Activity Set2 (aurora A kinase (AURKA); Log[nM] 3.0): 80%
- Aurora A % Activity Set3 (aurora A kinase (AURKA); Log[nM] 3.0): 92%
- Aurora A % Activity Set1 (aurora A kinase (AURKA); Log[nM] 3.5): 55%
- Aurora A % Activity Set2 (aurora A kinase (AURKA); Log[nM] 3.5): 57%
- Aurora A % Activity Set3 (aurora A kinase (AURKA); Log[nM] 3.5): 59%
- Aurora A % Activity Set1 (aurora A kinase (AURKA); Log[nM] 4.0): 30%
- Aurora A % Activity Set2 (aurora A kinase (AURKA); Log[nM] 4.0): 28%
- Aurora A % Activity Set3 (aurora A kinase (AURKA); Log[nM] 4.0): 29%
- Aurora A % Activity Set1 (aurora A kinase (AURKA); Log[nM] 4.5): 11%
- Aurora A % Activity Set2 (aurora A kinase (AURKA); Log[nM] 4.5): 11%
- Aurora A % Activity Set3 (aurora A kinase (AURKA); Log[nM] 4.5): 11%
- Aurora A % Activity Set1 (aurora A kinase (AURKA); Log[nM] 5.0): 8%
- Aurora A % Activity Set2 (aurora A kinase (AURKA); Log[nM] 5.0): 7%
- Aurora A % Activity Set3 (aurora A kinase (AURKA); Log[nM] 5.0): 8%
- Fold less potent than compound 7 against EGFR (EGFR): 100 fold
- IC50 (EGFR; [3]): 384 ± 65.5 nM
- IC50 (EGFR; [4]): 357 nM
- EGFR % Activity Set1 (EGFR; Log[nM] 0): 97%
- EGFR % Activity Set2 (EGFR; Log[nM] 0): 99%
- EGFR % Activity Set3 (EGFR; Log[nM] 0): 99%
- EGFR % Activity Set1 (EGFR; Log[nM] 1.0): 95%
- EGFR % Activity Set2 (EGFR; Log[nM] 1.0): 102%
- EGFR % Activity Set3 (EGFR; Log[nM] 1.0): 91%
- EGFR % Activity Set1 (EGFR; Log[nM] 1.5): 93%
- EGFR % Activity Set2 (EGFR; Log[nM] 1.5): 102%
- EGFR % Activity Set3 (EGFR; Log[nM] 1.5): 84%
- EGFR % Activity Set1 (EGFR; Log[nM] 2.0): 80%
- EGFR % Activity Set2 (EGFR; Log[nM] 2.0): 83%
- EGFR % Activity Set3 (EGFR; Log[nM] 2.0): 82%
- EGFR % Activity Set1 (EGFR; Log[nM] 2.5): 51%
- EGFR % Activity Set2 (EGFR; Log[nM] 2.5): 49%
- EGFR % Activity Set3 (EGFR; Log[nM] 2.5): 53%
- EGFR % Activity Set1 (EGFR; Log[nM] 3.0): 26%
- EGFR % Activity Set2 (EGFR; Log[nM] 3.0): 23%
- EGFR % Activity Set3 (EGFR; Log[nM] 3.0): 27%
- EGFR % Activity Set1 (EGFR; Log[nM] 3.5): 12%
- EGFR % Activity Set2 (EGFR; Log[nM] 3.5): 9%
- EGFR % Activity Set3 (EGFR; Log[nM] 3.5): 10%
- EGFR % Activity Set1 (EGFR; Log[nM] 4.0): 4%
- EGFR % Activity Set2 (EGFR; Log[nM] 4.0): 5%
- EGFR % Activity Set3 (EGFR; Log[nM] 4.0): 4%
- EGFR % Activity Set1 (EGFR; Log[nM] 4.5): 2%
- EGFR % Activity Set2 (EGFR; Log[nM] 4.5): 3%
- EGFR % Activity Set3 (EGFR; Log[nM] 4.5): 1%
- EGFR % Activity Set1 (EGFR; Log[nM] 5.0): 1%
- EGFR % Activity Set2 (EGFR; Log[nM] 5.0): 1%
- EGFR % Activity Set3 (EGFR; Log[nM] 5.0): 2%

SMILES: Cc1ccc(Nc2ncnc3[nH]ccc23)cc1 [Compound 9, N^4-(4-methylphenyl)-7H-pyrrolo[2,3-d]pyrimidin-4-amine]
- IC50 (aurora A kinase (AURKA); [1]): 5.45 ± 0.36 µM
- IC50 (aurora A kinase (AURKA); [2]): 5.4 µM
- Aurora A % Activity Set1 (aurora A kinase (AURKA); Log[nM] 0): 101%
- Aurora A % Activity Set2 (aurora A kinase (AURKA); Log[nM] 0): 103%
- Aurora A % Activity Set3 (aurora A kinase (AURKA); Log[nM] 0): 105%
- Aurora A % Activity Set1 (aurora A kinase (AURKA); Log[nM] 1.0): 114%
- Aurora A % Activity Set2 (aurora A kinase (AURKA); Log[nM] 1.0): 103%
- Aurora A % Activity Set3 (aurora A kinase (AURKA); Log[nM] 1.0): 107%
- Aurora A % Activity Set1 (aurora A kinase (AURKA); Log[nM] 1.5): 111%
- Aurora A % Activity Set2 (aurora A kinase (AURKA); Log[nM] 1.5): 103%
- Aurora A % Activity Set3 (aurora A kinase (AURKA); Log[nM] 1.5): 109%
- Aurora A % Activity Set1 (aurora A kinase (AURKA); Log[nM] 2.0): 102%
- Aurora A % Activity Set2 (aurora A kinase (AURKA); Log[nM] 2.0): 107%
- Aurora A % Activity Set3 (aurora A kinase (AURKA); Log[nM] 2.0): 114%
- Aurora A % Activity Set1 (aurora A kinase (AURKA); Log[nM] 2.5): 99%
- Aurora A % Activity Set2 (aurora A kinase (AURKA); Log[nM] 2.5): 102%
- Aurora A % Activity Set3 (aurora A kinase (AURKA); Log[nM] 2.5): 110%
- Aurora A % Activity Set1 (aurora A kinase (AURKA); Log[nM] 3.0): 87%
- Aurora A % Activity Set2 (aurora A kinase (AURKA); Log[nM] 3.0): 90%
- Aurora A % Activity Set3 (aurora A kinase (AURKA); Log[nM] 3.0): 91%
- Aurora A % Activity Set1 (aurora A kinase (AURKA); Log[nM] 3.5): 63%
- Aurora A % Activity Set2 (aurora A kinase (AURKA); Log[nM] 3.5): 66%
- Aurora A % Activity Set3 (aurora A kinase (AURKA); Log[nM] 3.5): 61%
- Aurora A % Activity Set1 (aurora A kinase (AURKA); Log[nM] 4.0): 32%
- Aurora A % Activity Set2 (aurora A kinase (AURKA); Log[nM] 4.0): 29%
- Aurora A % Activity Set3 (aurora A kinase (AURKA); Log[nM] 4.0): 30%
- Aurora A % Activity Set1 (aurora A kinase (AURKA); Log[nM] 4.5): 16%
- Aurora A % Activity Set2 (aurora A kinase (AURKA); Log[nM] 4.5): 15%
- Aurora A % Activity Set3 (aurora A kinase (AURKA); Log[nM] 4.5): 13%
- Aurora A % Activity Set1 (aurora A kinase (AURKA); Log[nM] 5.0): 9%
- Aurora A % Activity Set2 (aurora A kinase (AURKA); Log[nM] 5.0): 9%
- Aurora A % Activity Set3 (aurora A kinase (AURKA); Log[nM] 5.0): 9%
- IC50 (EGFR; [3]): 667 ± 142 nM
- IC50 (EGFR; [4]): 693 nM
- EGFR % Activity Set1 (EGFR; Log[nM] 0): 103%
- EGFR % Activity Set2 (EGFR; Log[nM] 0): 98%
- EGFR % Activity Set3 (EGFR; Log[nM] 0): 105%
- EGFR % Activity Set1 (EGFR; Log[nM] 1.0): 112%
- EGFR % Activity Set2 (EGFR; Log[nM] 1.0): 109%
- EGFR % Activity Set3 (EGFR; Log[nM] 1.0): 103%
- EGFR % Activity Set1 (EGFR; Log[nM] 1.5): 113%
- EGFR % Activity Set2 (EGFR; Log[nM] 1.5): 108%
- EGFR % Activity Set3 (EGFR; Log[nM] 1.5): 95%
- EGFR % Activity Set1 (EGFR; Log[nM] 2.0): 95%
- EGFR % Activity Set2 (EGFR; Log[nM] 2.0): 88%
- EGFR % Activity Set3 (EGFR; Log[nM] 2.0): 81%
- EGFR % Activity Set1 (EGFR; Log[nM] 2.5): 74%
- EGFR % Activity Set2 (EGFR; Log[nM] 2.5): 63%
- EGFR % Activity Set3 (EGFR; Log[nM] 2.5): 67%
- EGFR % Activity Set1 (EGFR; Log[nM] 3.0): 36%
- EGFR % Activity Set2 (EGFR; Log[nM] 3.0): 35%
- EGFR % Activity Set3 (EGFR; Log[nM] 3.0): 43%
- EGFR % Activity Set1 (EGFR; Log[nM] 3.5): 18%
- EGFR % Activity Set2 (EGFR; Log[nM] 3.5): 16%
- EGFR % Activity Set3 (EGFR; Log[nM] 3.5): 23%
- EGFR % Activity Set1 (EGFR; Log[nM] 4.0): 8%
- EGFR % Activity Set2 (EGFR; Log[nM] 4.0): 7%
- EGFR % Activity Set3 (EGFR; Log[nM] 4.0): 10%
- EGFR % Activity Set1 (EGFR; Log[nM] 4.5): 3%
- EGFR % Activity Set2 (EGFR; Log[nM] 4.5): 4%
- EGFR % Activity Set3 (EGFR; Log[nM] 4.5): 3%
- EGFR % Activity Set1 (EGFR; Log[nM] 5.0): 1%
- EGFR % Activity Set2 (EGFR; Log[nM] 5.0): 1%
- EGFR % Activity Set3 (EGFR; Log[nM] 5.0): 2%
